According to patent publication US20020058843A1, “Novel group IV metal precursors and a method of chemical vapor deposition using the same” (priority 2000, published 2002):
“Also recorded” adds a separate entry of the source.

Columns and labels:
Assay type in all cases: physicochemical
[1] = Residue amount by thermal gravimetric analysis (TGA); details: for Residue amount: TGA, atmospheric pressure, N2 20 ml/min, residual weight at 550° C.; for Residues after being vaporized: in words
Procedure: (§1) The physical properties set forth in Tables 1 and 2 were measured by the following method: the melting point and vaporization temperature were measured from endothermic peaks of TG-DSC curves. However, the values indicated by the symbol * in Table 1 were measured by a melting point-measuring device, because the heat absorption by vaporization occurred along with the melting of the precursors during the measurement. The residue amounts were measured by thermal gravimetric analysis (TGA) under atmospheric pressure (N2, 20 ml/min) and recorded as residual weight of the precursors at 550° C.

[2] = Vaporization temperature from endothermic peaks of TG-DSC curves; details: for Vaporization temp.: endothermic peak of TG-DSC curve
Procedure: as §1
(§2) TG-DSC analysis for the precursor Ti(eip)2 according to Example 11 and the precursor Ti(2meip)2 according to Example 12 was carried out under atmospheric pressure in nitrogen gas or in air, and under a reduced pressure (1.3 mbar) using Netzsch STA 449C equipment. In this analysis, the precursors were heated to 550° C. at a scanning rate of 10° C./min in nitrogen gas of a flow rate of 20 ml/min, or in air of a flow rate of 30 ml/min.
(§3) (see, FIG. 1b). […] This difference is due to that Ti(2meip)2 has a relatively weak Ti-N bond compared with a Ti-O bond and has a homoleptic structure.

[3] = TG-DSC analysis in air (thermal decomposition); details: for Thermal decomposition behaviour (exothermic peak): in words
Procedure: as §2, §3

[4] = Solubility of precursor in organic solvents; details: for Solubility in methanol: 0.5 g in 5 ml of methanol; for Solubility in n-butyl acetate: 0.5 g in 5 ml of n-butyl acetate
Procedure: To evaluate solubility of precursors required in introducing the precursors in liquid phase for the deposition of thin films, the precursor Ti(eip)2 prepared in Example 11 and the precursor Ti(2meip)2 prepared in Example 12 were dissolved in methanol and n-butyl acetate, respectively. […] In contrast, 0.5 g of the precursor Ti(2meip)2 containing asymmetric carbons on its ligand was soluble in both methanol and n-butyl acetate.

[5] = Moisture proof of precursor (left to stand in air, NMR analysis); details: left to stand in air for three months or more
Procedure: 1.0 g of the precursor Ti(eip)2 prepared in Example 11 and 1.0 9 of the precursor Ti(2meip)2 prepared in Example 12 were placed in vials, respectively, and left to stand in air for three months or more. The analysis by NMR of the precursors was then carried out.

[6] = Vaporization rates according to temperature by thermogravimetric analysis (FIG. 4); details: vs Ti(mpd)(thd)2, Ti(thd)2(O-iPr)2, Ba(methd)2, Sr(methd)2
Description: Moreover, vaporization rates of the precursor Ti(2meip)2 was compared to that of the commercial precursors Ti(mpd)(thd)2, Ti(thd)2 (O-iPr)2, Ba(methd)2 and Sr(methd)2 The results are shown in FIG. 4.

Work on “Titanium bis[4-(n-propoxy)imino-2-pentanoate] [Ti(pip)2]” yielded a Residue amount ([1]; Table 1) of 26.6%.

Substance “Titanium bis[4-(1-ethylethoxy)imino-2-pentanoate] [Ti(1eeip)2]” has a Vaporization temp. ([2]; Table 1) of 303 °C and a Residue amount ([1]; Table 1) of 7.6%.

For “Titanium bis(iso-propoxide)bis[(2,2,6,6-tetramethyl-3,5-heptanedionate)] [Ti(OiPr)2(thd)2, reference compound]”, the Vaporization temp. ([2]; Table 2, prior art precursors) was 240 °C, the Residue amount ([1]; Table 2, prior art precursors) was 7% and the “Thermal decomposition behaviour (exothermic peak)” value [3] was “weak exothermic peak over a wide range of temperature”.

Work on “Titanium bis[2,6-dimethyl-5-(1-methylethoxy)imino-3-heptanoate] [Ti(26dm1meih)2]” yielded a Vaporization temp. ([2]; Table 1) of 285 °C and a Residue amount ([1]; Table 1) of 3.6%.

In the case of “Titanium bis[2,2-dimethyl-5-(2-methylethoxy)imino-3-heptanoate] [Ti(22dm2meih)2]”, the Vaporization temp. ([2]; Table 1) was 287 °C, the “Temperature at which the precursor is vaporized” value ([2]; atmospheric pressure / nitrogen atmosphere, without thermal decomposition) was 287 °C and the Residue amount ([1]; Table 1) was 0.5%. The “Residues after being vaporized” value [1] was “no residues” and the “Enhanced solubility over the precursor Ti(2meip)2” value ([4]; relative to Ti(2meip)2) was 20%.

Work on “Titanium bis[2,2-dimethyl-5-(ethoxy)imino-3-heptanoate] [Ti(22dmeih)2]” yielded a Vaporization temp. ([2]; Table 1) of 307 °C and a Residue amount ([1]; Table 1) of 10.6%.

“Strontium bis[1-methoxyethoxy-2,2,6,6-tetramethyl-3,5-heptanedionate] [Sr(methd)2, reference compound]” showed a Vaporization temp. ([2]; Table 2, prior art precursors) of 389 °C and a Residue amount ([1]; Table 2, prior art precursors) of 3.1%.

Work on “Titanium bis[2,6-dimethyl-5-(2-methylethoxy)imino-3-heptanoate] [Ti(26dm2meih)2]” yielded a Vaporization temp. ([2]; Table 1) of 283 °C and a Residue amount ([1]; Table 1) of 8.3%.

“Titanium bis[4-(1-methylethoxy)imino-2-pentanoate] [Ti(1meip)2]” showed a Vaporization temp. ([2]; Table 1) of 295 °C and a Residue amount ([1]; Table 1) of 3.3%.

In the case of “Titanium [2-methyl-2,4-dioxy-pentane]-bis[(2,2,6,6-tetramethyl-3,5-heptanedionate)] [Ti(mpd)(thd)2, reference compound]”, the Vaporization temp. ([2]; Table 2, prior art precursors) was 248 °C, the Residue amount ([1]; Table 2, prior art precursors) was <0.5% and the “Thermal decomposition behaviour (exothermic peak)” value [3] was “weak exothermic peak over a wide range of temperature”.

Substance “Titanium bis[4-(1,1-dimethylethoxy)imino-2-pentanoate] [Ti(1deip)2]” has a Vaporization temp. ([2]; Table 1) of 290 °C and a Residue amount ([1]; Table 1) of 13.7%.

For “Titanium bis[4-(2-methylethoxy)imino-2-pentanoate] [Ti(2meip)2]”, the Vaporization temp. ([2]; Table 1) was 290 °C, the Residue amount ([1]; Table 1) was <0.5% and the “Residues after being vaporized” value [1] was “no residues”. For the same substance, the “Stability on standing in air (NMR)” value [5] was “no peaks of non-coordinated ligands; also recorded: not structurally changed”, the Solubility in methanol [4] was “soluble” and the “Solubility in n-butyl acetate” value [4] was “soluble”. The “Thermal decomposition, exothermic peak temperature” value ([3]; TG-DSC in air, 30 ml/min, 10° C./min) was “about 315 °C” and the “Vapor pressure at the respective temperatures compared to the commercial precursors” value [6] was “low in their vapor pressure”.

With “Titanium bis[4-(ethoxy)imino-2-pentanoate] [Ti(eip)2]” the Vaporization temp. ([2]; Table 1) was 323 °C, the Residue after evaporation [1] was “about 8%” and the Residue amount ([1]; Table 1) was 8.0%. For the same substance, the “Stability on standing in air (NMR)” value [5] was “no peaks of non-coordinated ligands”, the Solubility in methanol [4] was “soluble” and the “Solubility in n-butyl acetate” value [4] was “insoluble”.

“Barium bis[1-methoxyethoxy-2,2,6,6-tetramethyl-3,5-heptanedionate] [Ba(methd)2, reference compound]” showed a Vaporization temp. ([2]; Table 2, prior art precursors) of 391 °C and a Residue amount ([1]; Table 2, prior art precursors) of 8.3%.
